Entries after “also recorded” stand apart in the source; their conditions may differ.
Columns and labels:
[1] = tested on: LPS-induced peritoneal NET formation; assay: Mouse model of LPS-induced peritonitis (in vivo NET formation); settings: C57BL/6 mice, i.p. LPS
Method: C57/BL6 or Swiss-Webster mice were pretreated in blinded fashion with CRISPP (10 mg/kg), nNIF (10 mg/kg), or CRISPP-SCR (10 mg/kg) by i.p. injection 1 hour prior to infection (E. coli, 4.5×10^7 cfu/mouse, i.p.) or inoculation (LPS, 25 mg/kg, i.p.) (SIGMA-ALDRICH®). Control mice were injected with saline alone. The mice were sacrificed in a CO2 chamber 3 hours post-infection/inoculation, and the peritoneal fluid and membrane samples were harvested. Briefly, the abdomen was disinfected and opened in the midline without injuring the muscle. The peritoneal cavity was lavaged with sterile saline solution (1 mL) and analyzed for in vivo NET formation, bacteriology, and leukocyte accumulation. NETs in the peritoneal fluid were qualitatively and quantitatively analyzed using live cell imaging with confocal microscopy and NET-associated histone H3 release assays. NETs on the serosal surface of the peritoneal membrane were assessed quantitatively using live cell imaging, followed by standardized grid analysis of five randomly selected high-power visual fields per tissue sample (IMAGEJ™ software, NIH). Peritoneal bacterial colony forming unit (cfu) counts were quantified by permeabilizing all recovered leukocytes with 0.1% Triton X-100 for 10 minutes and performing serial dilutions and bacterial cultures on 5% sheep blood agar plates (HARDY DIAGNOSTICS™). After a 24-hour incubation, bacterial counts were determined. Total leukocyte counts in the peritoneal lavage were determined in Neubauer chambers using an optical microscope after dilution in Turk's solution (2% acetic acid). Differential leukocyte analysis was performed using a 60× oil immersion objective to assess morphology of cyto-centrifuged cells stained with May-Gruenwald-Giemsa dye. All mice were included in the final analysis.

[2] = tested on: reactive oxygen species generation by PMNs; assay: Reactive oxygen species generation (dihydrorhodamine, flow cytometry); assay type: cell-based, human; settings: LPS 100 ng/mL, 1 hour
Method: FIG. 6B is a graph depicting reactive oxygen species generation that was measured by dihydrorhodamine detection after LPS stimulation (100 ng/mL, 1 hour).
Human PMNs isolated from healthy adult whole blood were resuspended to a concentration of 2×10^6 cells/mL in M-199 media and pre-incubated±CRISPP (1 nM) or CRISPP-SCR (1 nM) peptide for 1 hour at 37° C. in 5% CO2/95% air. The PMNs were then stimulated with LPS (100 ng/mL) for 1 hour, washed, and resuspended with a dihydrorhodamine ([…]; MOLECULAR PROBES®) and catalase (1000 Units/mL; SIGMA-ALDRICH®) mixture and incubated at 37° C. for 10 minutes. After incubation, samples were placed at 4° C. and analyzed for ROS-dependent fluorescence using flow cytometry as performed in the University of Utah core facility (BECTON DICKINSON™, […]™ software).
Without being bound by any specific theory, it was hypothesized that placentally expressed HTRA1, a serine protease, regulates the formation of NET-inhibitory peptides through cleavage of AAT. To test this hypothesis, term and preterm placenta were assessed for HTRA1 expression via western blotting. HTRA1 and AAT plasma expression from term and preterm infants and adults were determined by ELISA. Bioactive (0.5 μg) or placental eluted HTRA1 was incubated with AAT (8 μM) for 18 hours at 37° C. Carboxy-terminus fragments of AAT were detected using western blotting and mass spectrometry. […]

[3] = tested on: C57BL/6 mice subjected to CLP; assay: Mouse model of polymicrobial sepsis, cecal ligation and puncture (CLP); settings: 10 mg/kg i.p. 1 hour before and 6 hours after, versus nNIF-SCR
Method: FIG. 9B is a graph depicting C57BL/6 mice that were subjected to cecal ligation and puncture (CLP). nNIF or nNIF-SCR (10 mg/kg i.p.) was given 1 hour before and 6 hours after surgery (n≥7 in each group). Mice subjected to sham surgery were studied in parallel (n=3 in each group). Clinical illness severity scores (see Araujo C V, et al., Shock. 2016; 45 (4):393-403) were determined at 24 hours.
C57BL/6 mice were anaesthetized with ketamine/xylazine (100 mg/kg and 10 mg/kg, i.p; respectively), and cecal ligation and puncture (CLP) was performed as previously described (see Araujo C V, et al., Shock. 2016; 45 (4):393-403). nNIF (10 mg/kg) or nNIF-SCR (10 mg/kg) i.p. was given 1 hour prior to and 6 hours after CLP surgery. The animals received subcutaneous sterile isotonic saline (1 mL) for fluid resuscitation immediately after the surgery. Sham-operated mice were subjected to identical procedures except that CLP was not done. 24 hours after CLP, all animals were scored for clinical illness severity as previously described (see Araujo C V, et al., Shock. 2016; 45 (4):393-403). In this assessment, higher scores reflect increased illness severity.

[4] = tested on: C57BL/6 mice challenged with LPS; assay: Mouse model of systemic inflammation induced by LPS (endotoxemia), survival; assay type: in vivo
Method: Animals with no treatments or given LPS alone were studied in parallel (n≥10 mice for each condition). **P<0.01, log-rank (Mantel-Cox) statistical tool used. The survival difference between nNIF-LPS and CRISPP-LPS compared to CRISPP-SCR-LPS trended toward significance (§ P=0.051).
Control mice were i.p. injected with saline alone. Fluid resuscitation and antibiotic treatment were not used in these experiments. Survival was assessed over 50 or 72 hour intervals. All mice were included in the final survival analysis.

[5] = tested on: PMN killing of a pathogenic strain of Escherichia coli; assay: Bacterial killing assay (total, phagocytic, NET-mediated); assay type: cell-based, human; settings: LPS-stimulated PMNs, E. coli
Method: FIG. 6A is a graph depicting results, after preincubation, of neutrophils that were stimulated with LPS (100 ng/mL) to trigger NET formation and incubated with a pathogenic isolate of E. coli. Total, phagocytic, and NET-mediated bacterial killing were measured (see Yost C C, et al., Blood. 2009; 113 (25):6419-27). One way ANOVA with Bonferonni's post hoc testing; *P<0.05, **P<0.01.
NET-mediated and phagocytic bacterial killing by primary human PMNs was determined as previously described (see Yost C C, et al., Blood. 2009; 113 (25):6419-27).
Without being bound by any specific theory, it was hypothesized that placentally expressed HTRA1, a serine protease, regulates the formation of NET-inhibitory peptides through cleavage of AAT. To test this hypothesis, term and preterm placenta were assessed for HTRA1 expression via western blotting. HTRA1 and AAT plasma expression from term and preterm infants and adults were determined by ELISA. Bioactive (0.5 μg) or placental eluted HTRA1 was incubated with AAT (8 μM) for 18 hours at 37° C. Carboxy-terminus fragments of AAT were detected using western blotting and mass spectrometry. The reaction products were incubated for 1 hour with PMNs isolated from healthy adults prior to LPS stimulation (100 ng/mL) and assessed for NET formation using live cell imaging. Reactive oxygen species were assessed using flow cytometry, chemotaxis using a modified Boyden chamber assay, and bacterial killing using E. coli.

platelets = assay: P-selectin surface translocation on thrombin-activated platelets (flow cytometry); assay type: cell-based, human; settings: thrombin 0.1 U/mL; peptide 1 nM
Method: FIG. 6E is a graph depicting surface translocation of P-selectin on platelets activated by thrombin (0.1 U/mL) that was measured by flow cytometry. The dashed line indicates surface P-selectin on unstimulated platelets.
(§1) P-selectin translocation and surface display by activated platelets (see van Velzen J F, et al., Thromb Res. 2012; 130 (1):92-8) and formation of platelet-neutrophil aggregates (see Evangelista V, et al., Blood. 1996; 88 (11):4183-94) were measured as described.

[6] = tested on: activated human platelets and PMNs; assay: Platelet-neutrophil aggregate formation; assay type: cell-based; settings: thrombin 0.1 U/mL, LPS 100 ng/mL; peptide 1 nM
Method: FIG. 6F is a graph depicting formation of platelet-neutrophil aggregates that was measured after mixing of platelets activated with thrombin (0.1 U/mL) and neutrophils activated with LPS (100 ng/mL). The dashed line indicates control aggregate formation in response to LPS stimulation of the PMNs alone. *P<0.05 for CRISPP and CRISPP-SCR compared to control. FIGS. 6A-6F are a series of graphs depicting isolated adult neutrophils or platelets that were preincubated with buffer or with CRISPP, nNIF, or CRISPP-SCR (1 nM, 1 hour for each) followed by measurement of functional responses. A minimum of three separate assays were done for each response. Error bars=SEM. Tukey's post hoc testing was applied in FIGS. 6B, 6D, 6E, and 6F.
as §1

| Substance | LPS-induced peritoneal NET formation [1] | generation of reactive oxygen species (ROS) [2] | clinical illness scores at 24 hours [3] | survival advantage at 72 hours ([4]; second experiment, compared to LPS alone) | extracellular NET-mediated bacterial killing [5] | phagocytic intracellular killing [5] | total bacterial killing [5] | surface translocation of P-selectin by thrombin-stimulated platelets (platelets) | animals alive at 50 hours ([4]; i.p. LPS, first experiment, n=6 per group) | formation of heterotypic aggregates by activated platelets and PMNs [6] |
| --- | --- | --- | --- | --- | --- | --- | --- | --- | --- | --- |
| KFNKPFVFLMIEQNTKSPLFMGKVVNPTQ (listed as Homo sapiens) [nNIF] | inhibited | did not inhibit | lower | durable | – | – | – | – | – | – |
| M_IPPEVKFNKPFVFLMIDQNTKVPLFMGK [CRISPP, consensus peptide based on factors present in the blood of patients with cancer] | inhibited | did not inhibit; also recorded: not inhibited | – | – | depressed | not altered | depressed | does not inhibit | all | does not inhibit |
